The values that follow are results of earlier work, collected in patent publication US20260015669A1, “COMPOSITIONS AND METHODS FOR DETECTING AND TREATING TUMORS AND/OR CANCERS ASSOCIATED WITH BRAF AND/OR MAP2K1 VARIANTS” (North Carolina State University, priority 2022, published 2026).

Data set [1] relates to ΔNVTAP mutants. Conditions: human cancer cell lines; RAF dimer inhibitors target the αC-in/DFG-out conformation.
Data set [2] addresses ΔNVTAP mutants (Homo sapiens, UniProt P15056, DEL486-490). Conditions: human cancer cell lines; in contrast to V600E mutants; inhibitors target the αC-out/DFG-in conformation.

Molecules are shown by their SMILES.

ΔNVTAP mutants (Homo sapiens, UniProt P15056, DEL486-490), sequence (P15056 with tags, fused parts or gaps DEL486-490): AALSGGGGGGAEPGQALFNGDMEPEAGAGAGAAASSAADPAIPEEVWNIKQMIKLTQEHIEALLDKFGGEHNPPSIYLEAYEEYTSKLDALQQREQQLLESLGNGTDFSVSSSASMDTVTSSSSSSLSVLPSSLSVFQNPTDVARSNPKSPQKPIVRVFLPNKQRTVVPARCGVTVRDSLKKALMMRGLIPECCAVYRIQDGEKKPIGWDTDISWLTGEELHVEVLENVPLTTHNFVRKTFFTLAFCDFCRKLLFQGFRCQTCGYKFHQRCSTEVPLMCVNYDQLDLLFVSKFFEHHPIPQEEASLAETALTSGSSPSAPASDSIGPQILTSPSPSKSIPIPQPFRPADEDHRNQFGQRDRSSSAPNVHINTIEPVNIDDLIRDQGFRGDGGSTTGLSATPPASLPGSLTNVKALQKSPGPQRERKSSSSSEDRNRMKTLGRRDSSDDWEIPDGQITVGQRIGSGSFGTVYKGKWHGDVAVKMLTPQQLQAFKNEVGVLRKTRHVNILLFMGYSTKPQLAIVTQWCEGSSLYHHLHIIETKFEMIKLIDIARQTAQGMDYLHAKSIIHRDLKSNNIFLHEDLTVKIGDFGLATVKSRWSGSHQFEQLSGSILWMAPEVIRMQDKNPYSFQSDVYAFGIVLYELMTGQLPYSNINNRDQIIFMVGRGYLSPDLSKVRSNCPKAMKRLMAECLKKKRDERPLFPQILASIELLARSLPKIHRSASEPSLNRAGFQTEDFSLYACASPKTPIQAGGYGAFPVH

In the case of `CNc1ncc2cc(-c3cc(NC(=O)NCCC(C)(C)C)c(F)cc3C)c(C)nc2n1` [LY3009120], the “response of mutants with exon 12 in-frame deletions to pan-RAF dimer inhibitors and allosteric MEK inhibitors” value in data set [1] is recorded as “susceptible”. Consider `CC(C)(C)c1nc(-c2cccc(NS(=O)(=O)c3c(F)cccc3F)c2F)c(-c2ccnc(N)n2)s1` [dabrafenib], for which, in data set [2], the “response of ΔNVTAP mutants to BRAF monomer inhibitors” value is “resistant”. Take `Cc1ccc(NC(=O)c2cccc(C(C)(C)C#N)c2)cc1Nc1ccc2ncn(C)c(=O)c2c1` [AZ628]: the “response of mutants with exon 12 in-frame deletions to pan-RAF dimer inhibitors and allosteric MEK inhibitors” value in data set [1] was “susceptible”. As to `O=C(c1ccc(F)c(F)c1Nc1ccc(I)cc1F)N1CC(O)([C@@H]2CCCCN2)C1` [cobimetinib], in data set [1], the “response of mutants with exon 12 in-frame deletions to pan-RAF dimer inhibitors and allosteric MEK inhibitors” value is listed as “susceptible”.
